Entries after “also recorded” stand apart in the source; their conditions may differ.
Biological target: T1, PIM-1 kinase (Homo sapiens, UniProt P11309)
T1 construct: purchased Cell Signaling Technology Inc., Boston, USA
Experiment: In vitro assay for PIM-1 kinase inhibition (PIM-1 Kinase Assay Kit, colorimetric ELISA readout)
Type: biochemical
Details: for PIM-1 kinase inhibition (result in words): increasing concentrations 0.1 to 100 µM, Fig. 1 (1.5 ng PIM-1 kinase) and Fig. 2 (2.5 ng PIM-1 kinase); for % remaining PIM-1 kinase activity: test compound at final concentration 100 µM, normalized to positive control (no test compound) = 100 % activity, 1.5 ng (A-D series) or 2.5 ng (E series) PIM-1 kinase, 200 µM ATP
Experimental: • Fig. 1: The compounds 1-chloro-5-([1,4]diazepane-1-sulfonyl)-8-propoxy-isoquinoline (compound A), 1-chloro-5-(piperazin-1-sulfonyl)-8-methoxy-isoquinoline (compound B), […] (compound C), and 1-chloro-5-([1,4]diazepane-1-sulfonyl)-6-methoxy-isoquinoline (compound D) are potent PIM kinase inhibitors. In vitro assays of PIM-1 kinase activity (1.5 ng) in the present of increasing concentrations of the compounds A, B, C or D were performed as described within example 5. An assay without additional test compound served as positive control for the assay (pos) and an assay without PIM-1 kinase served as negative assay (neg). […] Each assay result was normalized in comparison to the positive control which was defined as 100 % activity. […] In vitro assays of PIM-1 kinase activity (2.5 ng) in the present of increasing concentrations of the compound E were performed as described within example 5. An assay without additional test compound served as positive control for the assay (pos) and an assay without PIM-1 kinase served as negative assay (neg). […] Each assay result was normalized in comparison to the positive control which was defined as 100 % activity.
The in vitro assay for PIM-1 kinase inhibition was performed using the PIM-1 Kinase Assay Kit (Cell Signaling Technology Inc., Boston, USA) according to the manufacture's instruction. Briefly, 1.5 or 2.5 ng PIM-1 kinase has been dissolved in 50 µl assay buffer (25 mM Tris-Hcl (pH 7.5), 10 mM MgCl2, 5 mM beta-glycerophosphate, 0.1 mM Na3VO4, 2 mM DTT, 200 µM ATP, and 1.5 µM peptide substrate) and test compound has been added to a final concentration in a range of 0.1 to 100 µM. After 30 minutes incubation at ambient temperature the reaction was stopped by adding 50 µl Stop buffer (50 mM EDTA, pH 8) per reaction. An aliquot of 25 µl per reaction was diluted each by 75 µl water and transferred to a 96-well streptavidin-coated plate. After 60 minutes incubation and three times washing with PBS, 100 µl/well primary antibody (Phospho-Bad (Ser112) antibody, 1:1000 diluted in PBS) was added. After further 2 h incubation and three times washing with PBS, an usual colorimetric ELISA assay was performed using a HRP labeled second antibody according to the manufacture's instructions. A PIM kinase reaction without addition of a test compound served as positive control (pos) and an assay without PIM kinase served as negative control (neg). […] The PIM-1 kinase inhibition of the test compounds (1-chloro-5-([1,4]diazepane-1-sulfonyl)-8-propoxy-isoquinoline (compound A), 1-chloro-5-(piperazin-1-sulfonyl)-8-methoxy-isoquinoline (compound B), 1-methyl-5-([1,4]diazepane-1-sulfonyl)-8-methoxy-isoquinoline (compound C), and 1-chloro-5-([1,4]diazepane-1-sulfonyl)-6-methoxy-isoquinoline (compound D)) was measured in a first series of assays, and the one of the compound 5-([1,4]diazepane-1-sulfonyl)-8-methoxy-isoquinoline (compound E) was measured in a second series of assays. Within each series of assays the measured PIM-1 kinase activity was normalized in comparison to the positive control (pos) which was defined as 100 % activity. […] The table below summarizes the percentage of the remaining PIM-1 kinase activity in the presence of the test compounds in a final concentration of 100 µM.

T1 sequence (P11309 whole entry): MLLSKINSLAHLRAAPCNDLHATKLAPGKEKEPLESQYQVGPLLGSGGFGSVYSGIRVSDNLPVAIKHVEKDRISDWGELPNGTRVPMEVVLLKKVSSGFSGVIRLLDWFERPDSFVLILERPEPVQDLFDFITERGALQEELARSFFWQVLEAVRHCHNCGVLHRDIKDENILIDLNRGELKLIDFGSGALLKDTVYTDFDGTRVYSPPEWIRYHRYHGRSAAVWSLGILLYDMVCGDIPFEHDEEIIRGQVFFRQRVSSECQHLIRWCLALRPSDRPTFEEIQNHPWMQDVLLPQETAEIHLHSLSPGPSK

COc1ccc(S(=O)(=O)N2CCNCC2)c2ccnc(Cl)c12 [B, 1-chloro-5-(piperazin-1-sulfonyl)-8-methoxy-isoquinoline]
PIM-1 kinase inhibition (result in words): potent PIM-1 kinase inhibitors; also recorded: potent PIM inhibitory effect | % remaining PIM-1 kinase activity: 33%

COc1ccc2c(Cl)nccc2c1S(=O)(=O)N1CCCNCC1 [D, 1-chloro-5-([1,4]diazepane-1-sulfonyl)-6-methoxy-isoquinoline]
PIM-1 kinase inhibition (result in words): potent PIM-1 kinase inhibitors; also recorded: potent PIM inhibitory effect | % remaining PIM-1 kinase activity: 29%

CCCOc1ccc(S(=O)(=O)N2CCCNCC2)c2ccnc(Cl)c12 [Compound A, 1-chloro-5-([1,4]diazepane-1-sulfonyl)-8-propoxy-isoquinoline]
PIM-1 kinase inhibition (result in words): potent PIM-1 kinase inhibitors; also recorded: potent PIM inhibitory effect | % remaining PIM-1 kinase activity: 23%

COc1ccc(S(=O)(=O)N2CCCNCC2)c2ccnc(C)c12 [C, 1-methyl-5-([1,4]diazepane-1-sulfonyl)-8-methoxy-isoquinoline]
PIM-1 kinase inhibition (result in words): potent PIM-1 kinase inhibitors; also recorded: potent PIM inhibitory effect | % remaining PIM-1 kinase activity: 31%

COc1ccc(S(=O)(=O)N2CCCNCC2)c2ccnc(Cl)c12 [G, 1-chloro-8-methoxy-Fasudil, reference compound]
PIM-1 kinase inhibition (result in words): very potent PIM-1 inhibitor | % remaining PIM-1 kinase activity: 17%

COc1ccc(S(=O)(=O)N2CCCNCC2)c2ccncc12 [E, 5-([1,4]diazepane-1-sulfonyl)-8-methoxy-isoquinoline, reference compound]
PIM-1 kinase inhibition (result in words): at most a moderate PIM-1 kinase inhibition; also recorded: only weak PIM inhibitory effect | % remaining PIM-1 kinase activity: 46%

O=S(=O)(c1cccc2cnccc12)N1CCCNCC1 [F, Fasudil, reference compound]
PIM-1 kinase inhibition (result in words): at the most very weak PIM-1 inhibition | % remaining PIM-1 kinase activity: 71%
